Assay [1] relates to Tau phosphorylation at Ser396 (pSer396). The assay is described as follows: Tau phosphorylation assay (pSer396 ELISA / western blot) in SH-SY5Y cells.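 Further: EC50 for reduction of Tau pSer396 in lysed cells, measured by colorimetric ELISA or chemiluminescent western blot, both using the same pSer396 antibody.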 To be noted: Homo sapiens; SH-SY5Y cells, overnight (16-18 h) exposure; read-out: pSer396 Tau EC50. It is filed as cell-based, human. (An ELISA detects its analyte on a solid surface through an enzyme-linked reagent.)
For another assay, the target named is recombinant GSK3β kinase (Homo sapiens (Human), UniProt P49841). The assay is described as follows: GSK3β kinase assay (Ser/Thr 09 peptide Z-lyte FRET).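 Further: kinase activity read as coumarin to fluorescein emission ratio, 11-point threefold dilutions from 10 µM to 0.0003 µM in duplicate, unphosphorylated and phosphorylated peptide as 0% and 100% controls.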 Format: biochemical. To be noted: 46 μM ATP, 1 h room temperature.
recombinant GSK3β kinase, sequence (P49841 whole entry): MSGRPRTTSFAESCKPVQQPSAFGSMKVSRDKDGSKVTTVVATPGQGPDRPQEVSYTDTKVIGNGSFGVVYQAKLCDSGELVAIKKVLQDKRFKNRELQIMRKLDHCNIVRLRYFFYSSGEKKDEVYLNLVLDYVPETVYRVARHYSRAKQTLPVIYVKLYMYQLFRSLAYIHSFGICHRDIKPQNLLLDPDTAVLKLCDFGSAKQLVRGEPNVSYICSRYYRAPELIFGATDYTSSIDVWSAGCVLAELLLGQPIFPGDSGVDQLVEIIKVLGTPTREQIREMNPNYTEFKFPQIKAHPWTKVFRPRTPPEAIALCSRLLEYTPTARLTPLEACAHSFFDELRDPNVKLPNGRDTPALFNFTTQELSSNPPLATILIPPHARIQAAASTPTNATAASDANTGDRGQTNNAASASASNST
Another assay deals with IL-6. Kind of assay: IL-6 inhibition in LPS-stimulated human peripheral blood mononuclear cells (HTRF).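 On all read-outs here: IL-6 detected by HTRF with an XL665- and Cryptate-labelled anti-IL-6 antibody pair, samples run in duplicate, EC50 obtained from a four-parameter Levenberg-Marquardt curve fit.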 To be noted: Homo sapiens, PBMC; for pEC50: Table 9, huPBMCs, LPS 50 ng/mL, 22 hours, dose-response starting from 10 μM; for inhibition at 10 µM: read-out: percent value in parentheses beside EC50 >10 μM. Format: cell-based. Background: In TR-FRET formats the signal depends on donor and acceptor labels being close together.

In assay [2] the test system is α-smooth muscle actin (αSMA) positive LL29 cells. The assay is described as follows: Inhibition of fibrotic process: αSMA in TGF-β1 treated primary human fibroblasts from IPF patients.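 On all read-outs here: controls were TGF-β1 stimulated wells with DMSO vehicle (positive) and cells given DMSO alone (negative), cultured in F12 medium with 1% fetal bovine serum.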 It is filed as cell-based. The settings on record: Homo sapiens, Fibroblast; for pEC50: 96 h, Table 8, LL29 fibroblasts from IPF patients, TGF-β1 20 ng/mL, 4 days, dose-response 10 μM to 0.94 nM; for inhibition at 10 µM: read-out: percent value in parentheses beside EC50 >10 μM.

In assay [3] the test system is Wnt pathway (Sp5-Luc reporter, TCF/LEF binding sites) in SW480 colon carcinoma cells. The assay is described as follows: Screening assay for Wnt activity: Sp5-Luc reporter gene assay.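 On all read-outs here: firefly luciferase luminescence read in stably transduced SW480 cells carrying the Sp5 promoter reporter with eight TCF/LEF sites, compounds given in 0.1% DMSO final.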 The settings on record: Homo sapiens; for pEC50: Sp5-Luc reporter, SW480 cells, 36 to 48 hours; for inhibition at 10 µM: SW480, read-out: percent inhibition at 10 μM. Format: cell-based, human. A general note: A reporter such as luciferase makes a cellular process visible.
Experimental: The screening assay for Wnt activity is described as follows.
Following incubation, 15 μl of BriteLite Plus luminescence reagent (Perkin Elmer) was added to each well of the 384-well assay plates. The plates were placed on an orbital shaker for 2 min and then luminescence was quantified using the Envision (Perkin Elmer) plate reader.

For assay [4], the target named is recombinant DYRK1A kinase (Homo sapiens (Human), UniProt Q13627). Kind of assay: DYRK1A kinase assay (Ser/Thr 18 peptide Z-lyte FRET).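 Further: Read-out is the coumarin to fluorescein emission ratio, referenced to unphosphorylated (0%) and phosphorylated (100%) Ser/Thr 18 peptide controls, values from dose-response curves by non-linear regression.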 Format: biochemical. To be noted: 30 μM ATP, 1 h room temperature.
The test system of assay [5] is SW480 colon carcinoma cells. The assay is described as follows: Cell viability assay (CellTiter-Glo). Format: cell-based, human. The settings on record: Homo sapiens; for pEC50: 96 h, SW480 cells, CellTiter-Glo, four days incubation; for inhibition at 10 µM: SW480, read-out: percent inhibition at 10 μM.

Each structure is given as a SMILES string. pEC50: −log10 of the molar value.

Experimental for IL-6: After 22 hour incubation, a mixture of anti-IL6 XL665 and anti-IL-6 Cryptate diluted in reconstitution buffer (Catalog #62IL6PEC, Cisbio Inc., Bedford, Mass.) was added to each well. […] All samples were processed in duplicate. […] EC50 was determined using software generated by Dotmatics Limited (Windhill Bishops Stortford Herts, UK) using the Levenberg-Marquardt 4 parameter fitting procedure with finite different gradients.

With `Cn1cc(-c2ccc3cnc(NC(=O)CN4CCC(C(F)(F)F)CC4)cc3c2)cn1` [Compound 294, N-(6-(1-Methyl-1H-pyrazol-4-yl)isoquinolin-3-yl)-2-(4-(trifluoromethyl)piperidin-1-yl)acetamide], the pEC50 in assay [1] was 6.04; at recombinant GSK3β kinase, 7.39; in the assay on IL-6, 5.21; in assay [2], less than 5.00; in assay [3], 5.29; in assay [4] it was 7.91. In assay [5], this molecule gave a pEC50 of 5.38. Moreover, the inhibition at 10 µM in assay [2] turned out to be 41.3%.
With `Cn1cc(-c2ccc3cnc(NC(=O)CN4CCC5(CC4)CC5)cc3c2)cn1` [Compound 296, N-(6-(1-Methyl-1H-pyrazol-4-yl)isoquinolin-3-yl)-2-(6-azaspiro[2.5]octan-6-yl)acetamide], the pEC50 in assay [1] is 6.01; on recombinant GSK3β kinase it was 7.10; in the assay on IL-6, 5.80; in assay [2], 5.71; in assay [3], 5.46; in assay [4], 7.84. Besides, the pEC50 in assay [5] was 5.46.
For `O=C(Nc1cc2cc(-c3cnn(C4CC4)c3)ccc2cn1)C1CCN(CCC(F)(F)F)CC1` [Compound 297, N-(6-(1-Cyclopropyl-1H-pyrazol-4-yl)isoquinolin-3-yl)-1-(3,3,3-trifluoropropyl)piperidine-4-carboxamide], the pEC50 in assay [1] was 5.85; on recombinant GSK3β kinase it was 6.81; with IL-6, 5.93; in assay [2], 6.35; in assay [3] it was 5.32; in assay [4], 7.63. This molecule also gave a pEC50 in assay [5] of 5.24.
Turning to `Cn1ncc(-c2ccc3cnc(NC(=O)C4CCC(F)(F)CC4)cc3c2)c1CN1CCC1` [Compound 298, N-(6-(5-(Azetidin-1-ylmethyl)-1-methyl-1H-pyrazol-4-yl)isoquinolin-3-yl)-4,4-difluorocyclohexane-1-carboxamide], the pEC50 was 5.86 in assay [1]; 6.90 on recombinant GSK3β kinase; 5.26 in the assay with IL-6; 5.87 in assay [2]; 5.49 in assay [3]; 7.87 in assay [4]. Further, the pEC50 in assay [5] was 5.62.
Turning to `Cn1ncc(-c2ccc3cnc(NC(=O)C4CCC(F)(F)CC4)cc3c2)c1CN1CCCC1` [Compound 299, 4,4-Difluoro-N-(6-(1-methyl-5-(pyrrolidin-1-ylmethyl)-1H-pyrazol-4-yl)isoquinolin-3-yl)cyclohexane-1-carboxamide], the pEC50 in assay [1] is 6.24; on recombinant GSK3β kinase, 7.36; in the assay on IL-6, 5.34; in assay [2] it was 5.92; in assay [3] it was 5.82; in assay [4], 8.17. This molecule gave a pEC50 in assay [5] of 5.65.
Regarding `Cn1ncc(-c2ccc3cnc(NC(=O)C4CCC(F)(F)CC4)cc3c2)c1CN1CCCCC1` [Compound 300, 4,4-Difluoro-N-(6-(1-methyl-5-(piperidin-1-ylmethyl)-1H-pyrazol-4-yl)isoquinolin-3-yl)cyclohexane-1-carboxamide], the pEC50 in assay [1] is 6.65; on recombinant GSK3β kinase it was 7.51; in the assay on IL-6 it was 5.56; in assay [2] it was 6.29; in assay [3] it was 5.95; in assay [4], 8.09. For the same molecule, the pEC50 in assay [5] was 5.89.
On to `Cn1cc(-c2ccc3cnc(NC(=O)C4CC5(CCN(CCF)CC5)C4)cc3c2)cn1` [Compound 301, 7-(2-Fluoroethyl)-N-(6-(1-methyl-1H-pyrazol-4-yl)isoquinolin-3-yl)-7-azaspiro[3.5]nonane-2-carboxamide], for which the pEC50 in assay [1] is 6.97; on recombinant GSK3β kinase, 8.00; in the assay on IL-6, 6.41; in assay [2], 5.32; in assay [3], 6.33; in assay [4], 8.70. This molecule also had a pEC50 in assay [5] of 6.26.
As for `CN(CC(=O)Nc1cc2cc(-c3cnn(C)c3)ccc2cn1)C1CCC1` [Compound 302, 2-(Cyclobutyl(methyl)amino)-N-(6-(1-methyl-1H-pyrazol-4-yl)isoquinolin-3-yl)acetamide], the pEC50 in assay [1] was 6.20; on recombinant GSK3β kinase it was 7.42; with IL-6, 5.11; in assay [2], 6.05; in assay [3] it was 5.44; in assay [4], 8.11. Further, the pEC50 in assay [5] was less than 5.00. Also, the inhibition at 10 µM in assay [5] came to 34.9%.
For the molecule `CCN(CC)CC(=O)Nc1cc2cc(-c3cnn(C)c3)ccc2cn1` [Compound 303, 2-(Diethylamino)-N-(6-(1-methyl-1H-pyrazol-4-yl)isoquinolin-3-yl) acetamide], the pEC50 was 6.11 in assay [1]; 7.05 at recombinant GSK3β kinase; 5.28 in the assay on IL-6; 6.09 in assay [2]; 5.01 in assay [3]; 8.10 in assay [4]. In assay [5], this molecule had a pEC50 of 5.11.
With `[2H]C([2H])([2H])n1cc(-c2ccc3cnc(NC(=O)C4CCN(CCC(F)(F)F)CC4)cc3c2)cn1` [Compound 304, N-(6-(1-(Methyl-d3)-1H-pyrazol-4-yl)isoquinolin-3-yl)-1-(3,3,3-trifluoropropyl)piperidine-4-carboxamide], the pEC50 was 6.68 in assay [1]; 7.54 on recombinant GSK3β kinase; 5.94 in the assay with IL-6; 6.82 in assay [2]; 5.64 in assay [3]; 8.57 in assay [4]. In addition, the pEC50 in assay [5] was 5.87.
Turning to `[2H]C([2H])([2H])n1cc(-c2ccc3cnc(NC(=O)CN4CCCC4)cc3c2)cn1` [Compound 305, N-(6-(1-(Methyl-d3)-1H-pyrazol-4-yl)isoquinolin-3-yl)-2-(pyrrolidin-1-yl) acetamide], the pEC50 is 6.61 in assay [1]; 7.29 on recombinant GSK3β kinase; 5.94 with IL-6; 5.26 in assay [2]; 5.71 in assay [3]; 8.09 in assay [4]. The pEC50 in assay [5] was 5.78.
In the case of `[2H]C([2H])([2H])n1cc(-c2ccc3cnc(NC(=O)CN4CCCCC4)cc3c2)cn1` [Compound 306, N-(6-(1-(Methyl-d3)-1H-pyrazol-4-yl)isoquinolin-3-yl)-2-(piperidin-1-yl) acetamide], the pEC50 was 6.23 in assay [1]; 7.18 at recombinant GSK3β kinase; 5.60 in the assay on IL-6; 6.55 in assay [2]; 5.43 in assay [3]; 8.14 in assay [4]. Further, the pEC50 in assay [5] was 5.49.
On to `Cc1cc(-c2ccc3cnc(NC(=O)C4CCN(CCC(F)(F)F)CC4)cc3c2)on1` [Compound 307, N-(6-(3-Methylisoxazol-5-yl)isoquinolin-3-yl)-1-(3,3,3-trifluoropropyl) piperidine-4-carboxamide], for which the negative logarithm of the EC50 (pEC50) in assay [1] is 5.68; on recombinant GSK3β kinase it was 5.28; in the assay with IL-6 it was less than 5.00; in assay [2], 5.15; in assay [3], less than 5.00; in assay [4] it was 5.21. The pEC50 in assay [5] was less than 5.00. The inhibition at 10 µM in the assay with IL-6 came out at 4.3%; in assay [3], 25.9%.
Consider `O=C(Nc1cc2cc(-c3cnco3)ccc2cn1)C1CCN(CCC(F)(F)F)CC1` [Compound 308, N-(6-(Oxazol-5-yl)isoquinolin-3-yl)-1-(3,3,3-trifluoropropyl)piperidine-4-carboxamide], for which the negative logarithm of the EC50 (pEC50) in assay [1] is 6.44; at recombinant GSK3β kinase it was 6.97; in the assay on IL-6 it was 5.03; in assay [2] it was less than 5.00; in assay [3] it was 5.74; in assay [4], 8.62. In addition, in assay [5], the pEC50 was less than 5.00. Besides, the inhibition at 10 µM stood at 27.6% in assay [2] and 32% in assay [5].
`Cc1nnc(-c2ccc3cnc(NC(=O)C4(F)CCN(CC(C)C)CC4)cc3c2)o1` [Compound 309, 4-Fluoro-1-isobutyl-N-(6-(5-methyl-1,3,4-oxadiazol-2-yl)isoquinolin-3-yl) piperidine-4-carboxamide]: the pEC50 in assay [1] is 5.91; on recombinant GSK3β kinase, 6.92; with IL-6, less than 5.00; in assay [2] it was 7.85; in assay [3], less than 5.00; in assay [4], 7.46. Further, the pEC50 in assay [5] is less than 5.00. The inhibition at 10 µM in the assay with IL-6 turned out to be 4.5%; in assay [3], 43.5%; in assay [5] it was 9.6%.
In the case of `Cn1cc(-c2ccc3cnc(NC(=O)C4CCN(CC5(C(F)(F)F)CC5)CC4)cc3c2)cn1` [Compound 310, N-(6-(1-Methyl-1H-pyrazol-4-yl)isoquinolin-3-yl)-1-((1-(trifluoromethyl)cyclopropyl)methyl)piperidine-4-carboxamide], the pEC50 was 6.20 in assay [1]; 6.98 at recombinant GSK3β kinase; 5.93 with IL-6; 6.53 in assay [2]; 5.84 in assay [3]; 8.21 in assay [4]. The molecule also showed a pEC50 in assay [5] of 5.27.

For orientation: pEC50 means the negative decadic logarithm of the EC50, by convention in mol/L.

The values above are taken from patent US10287267B2, “Isoquinolin-3-yl carboxamides and preparation and use thereof” (Samumed, LLC, priority 2016, dated 2019).
